The subject of data set [1] is Mycobacterium smegmatis ATCC607 VM-R (viomycin-resistant). Description: Antibacterial spectrum, serial dilution on 1% glycerin-supplemented nutrient agar. It counts as cell-based. The following applies: Mycolicibacterium smegmatis, ATCC607, read-out: Minimum growth inhibitory concentration. As to the method:
(§1) The antibacterial spectrum of caprazamycin A against a variety of microorganisms were measured on a 1% glycerin-supplemented nutrient agar medium by a serial dilution method according to the standard method as provided by Japanese Society of Chemotherapy.
(§2) The antibacterial spectrum of caprazamycin B against a variety of microorganisms were measured on a 1% glycerin-supplemented nutrient agar medium by a serial dilution method according to the standard method as provided by Japanese Society of Chemotherapy.
(§3) The antibacterial spectrum of caprazamycin C against a variety of microorganisms were measured on a 1% glycerin-supplemented nutrient agar medium by a serial dilution method according to the standard method as provided by Japanese Society of Chemotherapy.
(§4) The antibacterial spectrum of caprazamycin E against a variety of microorganisms were measured on a 1% glycerin-supplemented nutrient agar medium by a serial dilution method according to the standard method as provided by Japanese Society of Chemotherapy.
(§5) The antibacterial spectrum of caprazamycin F against a variety of microorganisms were measured on a 1% glycerin-supplemented nutrient agar medium by a serial dilution method according to the standard method as provided by Japanese Society of Chemotherapy.

Data set [2] concerns Mycobacterium smegmatis ATCC607 KM-R (kanamycin-resistant). The data set is described as above. The following applies: Mycolicibacterium smegmatis, ATCC607, read-out: Minimum growth inhibitory concentration. It is filed as cell-based. The method, then:
as §1, §2, §3, §4, §5

For data set [3], the system named is Mycobacterium smegmatis ATCC607 PM-R (paromomycin-resistant). The data set is described as above. It is filed as cell-based. The settings on record: Mycolicibacterium smegmatis, ATCC607, read-out: Minimum growth inhibitory concentration. As to the method:
as §1, §2, §3, §4, §5

For data set [4], the system named is Mycobacterium vaccae ATCC15483. Described as above. It is filed as cell-based. The settings on record: Mycolicibacterium vaccae, read-out: Minimum growth inhibitory concentration. As to the method: as §1, §2, §3, §4, §5
The subject of data set [5] is Mycobacterium smegmatis ATCC607 RFP-R (rifampicin-resistant). Described as above. It is filed as cell-based. The settings on record: Mycolicibacterium smegmatis, ATCC607, read-out: Minimum growth inhibitory concentration. The method, then:
as §1, §2, §3, §4, §5

Data set [6] deals with Mycobacterium smegmatis ATCC607 SM-R (streptomycin-resistant). The description is as above. It counts as cell-based. The settings on record: Mycolicibacterium smegmatis, ATCC607, read-out: Minimum growth inhibitory concentration. The method, then:
as §1, §2, §3, §4, §5

For the next data set, the system named is Mycobacterium phlei. Described as above. It counts as cell-based. The following applies: Mycolicibacterium phlei, read-out: Minimum growth inhibitory concentration. As to the method:
as §1, §2, §3, §4, §5

Data set [7] has as its system Mycobacterium smegmatis ATCC607. The data set is described as above. It counts as cell-based. The settings on record: Mycolicibacterium smegmatis, read-out: Minimum growth inhibitory concentration. As to the method: as §1, §2, §3, §4, §5
Another data set deals with Mycobacterium fortuitum. Described as above. The settings on record: Mycolicibacterium fortuitum, read-out: Minimum growth inhibitory concentration. It counts as cell-based. As to the method:
as §1, §2, §3, §4, §5

The subject of data set [8] is Mycobacterium smegmatis ATCC607 ST-R (streptothricin-resistant). Described as above. It counts as cell-based. The settings on record: Mycolicibacterium smegmatis, ATCC607, read-out: Minimum growth inhibitory concentration. As to the method: as §1, §2, §3, §4, §5
Data set [9] deals with Mycobacterium smegmatis ATCC607 CPM-R (capreomycin-resistant). Described as above. The settings on record: Mycolicibacterium smegmatis, ATCC607, read-out: Minimum growth inhibitory concentration. It counts as cell-based. The method, then: as §1, §2, §3, §4, §5
Data set [10] relates to Mycobacterium avium kirchberg NIHJ-1605. Kind of data set: Antibacterial spectrum, serial dilution in Middlebrook 7H9 liquid medium. It counts as cell-based. Set-up: unit not given here. The method, then: (§6) The antibacterial spectrum of each of caprazamycins A, B, C, E and F against Mycobacterium tuberculosis, and against atypical acid-fast bacteria, Mycobacterium avium kirchberg and Mycobacterium intracellulare, were measured in a Middlebrook 7H9 liquid medium by a serial dilution method. At the same time, antibacterial spectra of rifampicin (RMP) and isonicotinic acid hydrazide (INH) (as comparative drug) against the above-mentioned acid-fast bacteria were measured by the same serial dilution method.

The subject of data set [11] is Mycobacterium tuberculosis H37Rv NIHJ-1633. Described as above. It counts as cell-based. Also on record: unit not given here. As to the method: as §6
Data set [12] deals with Mycobacterium intracellulare E-1 NIHJ-1618. The data set is described as above. It is filed as cell-based. Also on record: unit not given here. As to the method: as §6
The test system of data set [13] is Staphylococcus aureus MS9610 (multiple drug-resistant). Kind of data set: Antibacterial spectrum, serial dilution on Müller-Hinton agar. It is filed as cell-based. The settings on record: read-out: Minimum growth inhibitory concentration.
Data set [14] has as its system Staphylococcus aureus No.5 (methicillin-resistant). The data set is described as above. It counts as cell-based. The following applies: read-out: Minimum growth inhibitory concentration.
Data set [15] deals with Staphylococcus aureus TY-04282 (methicillin-resistant). The description is as above. It counts as cell-based. The settings on record: read-out: Minimum growth inhibitory concentration.
For data set [16], the system named is Bacillus subtilis NRRL B-558. The data set is described as above. It counts as cell-based. The settings on record: NRRLB558, read-out: Minimum growth inhibitory concentration.
The next data set has as its system Escherichia coli NIHJ. The data set is described as above. It counts as cell-based. The settings on record: read-out: Minimum growth inhibitory concentration.
Data set [17] relates to Corynebacterium bovis 1810. Described as above. It is filed as cell-based. The settings on record: read-out: Minimum growth inhibitory concentration. The method, then:
(§7) The antibacterial spectrum of caprazamycin B against a variety of microorganisms other than the microorganisms as specified in Table 2 were measured on Müller-Hinton agar medium by a serial dilution method according to the standard method as provided by Japanese Society of Chemotherapy.

Data set [18] has as its system Staphylococcus aureus Smith. The data set is described as above. The following applies: read-out: Minimum growth inhibitory concentration. It is filed as cell-based. As to the method: as §7
The test system of another data set is Micrococcus luteus FDA16. The description is as above. It counts as cell-based. The settings on record: read-out: Minimum growth inhibitory concentration. As to the method: as §7
The subject of data set [19] is Staphylococcus aureus FDA209P. Described as above. The settings on record: read-out: Minimum growth inhibitory concentration. It is filed as cell-based. As to the method:
as §7

Data set [20] concerns Micrococcus luteus PCI1001. Described as above. The following applies: read-out: Minimum growth inhibitory concentration. It counts as cell-based. As to the method: as §7
Data set [21] deals with Bacillus cereus ATCC10702. The data set is described as above. The following applies: read-out: Minimum growth inhibitory concentration. It is filed as cell-based. The method, then: as §7
Data set [22] relates to Bacillus subtilis PCI1219. Described as above. It counts as cell-based. The following applies: read-out: Minimum growth inhibitory concentration.
Data set [23] relates to mice (ICR type, 4 weeks-aged, male). Description: Toxicity in mice after intravenous administration. It is filed as in vivo. The settings on record: intravenously, 75 mg/kg. From the text:
The dose of a caprazamycin of the general formula (I) or a salt thereof as an active ingredient in the composition of this invention may depend upon the nature of bacterial infections to be treated, a purpose of the therapeutic treatment, degree of the patient's conditions and so on. However, an optimal dose of a caprazamycin can be decided by experts through suitable preliminary tests.

Data set [24] relates to Staphylococcus aureus MS16526 (methicillin-resistant). Description: Antibacterial spectrum, serial dilution on Müller-Hinton agar. It counts as cell-based. The settings on record: read-out: Minimum growth inhibitory concentration.
Another data set deals with Bacillus anthracis. Description: microbe, parasite or virus in culture. It is filed as cell-based. The settings on record: read-out: Minimum growth inhibitory concentration.
Data set [25] relates to Staphylococcus aureus No.17 (methicillin-resistant). Description: Antibacterial spectrum, serial dilution on Müller-Hinton agar. It counts as cell-based. The settings on record: read-out: Minimum growth inhibitory concentration.

Converted amounts (≈) assume the structure as drawn. Bounds are passed on as bounds.

Consider `CCCCCCCCCCCCCC(CC(=O)OC1CN(C)C(C(OC2OC(CN)C(O)C2O)C2OC(n3ccc(=O)[nH]c3=O)C(O)C2O)C(=O)N(C)C1C(=O)O)OC(=O)CC(C)CC(=O)OC1OC(C)C(OC)C(OC)C1OC` (centres unmarked) [Caprazamycin A, caprazamycin A], for which the MIC in data set [1] was 0.78 µg/mL (≈ 0.68 µM); in [2], 0.78 µg/mL (≈ 0.68 µM); in data set [3], 1.56 µg/mL (≈ 1.36 µM); in data set [4], 0.2 µg/mL (≈ 0.174 µM); in [5], 0.78 µg/mL (≈ 0.68 µM); in data set [6] it was 1.56 µg/mL (≈ 1.36 µM). The MIC came to 1.56 µg/mL (≈ 1.36 µM) in the data set with Mycobacterium phlei; 1.56 µg/mL (≈ 1.36 µM) in [7]; 6.25 µg/mL (≈ 5.45 µM) in the data set on Mycobacterium fortuitum; 0.78 µg/mL (≈ 0.68 µM) in data set [8]; 0.78 µg/mL (≈ 0.68 µM) in [9]. Further, the “Minimum Inhibitory Concentration of Compound tested against Test Bacteria” value in [10] was below 0.025; in data set [11] it was 1.56; in data set [12] it was 0.78.
Consider `COC1C(C)OC(OC(=O)CC(C)CC(=O)OC(CCCCCCCCCCC(C)C)CC(=O)OC2CN(C)C(C(OC3OC(CN)C(O)C3O)C3OC(n4ccc(=O)[nH]c4=O)C(O)C3O)C(=O)N(C)C2C(=O)O)C(OC)C1OC` (centres unmarked) [Caprazamycin B, caprazamycin B], for which the MIC in [13] worked out at 3.13 µg/mL (≈ 2.73 µM); in data set [14], 3.13 µg/mL (≈ 2.73 µM); in [1], 1.56 µg/mL (≈ 1.36 µM); in [2], 1.56 µg/mL (≈ 1.36 µM); in [3], 1.56 µg/mL (≈ 1.36 µM); in [4] it was 0.39 µg/mL (≈ 0.34 µM). Also, the MIC in [5] came out at 3.13 µg/mL (≈ 2.73 µM); in data set [6], 3.13 µg/mL (≈ 2.73 µM); with Mycobacterium phlei, 3.13 µg/mL (≈ 2.73 µM); in [7] it was 3.13 µg/mL (≈ 2.73 µM); in the data set with Mycobacterium fortuitum, 50 µg/mL (≈ 43.6 µM); in [8], 1.56 µg/mL (≈ 1.36 µM). In addition, the MIC in [9] was 1.56 µg/mL (≈ 1.36 µM); in data set [15], 6.25 µg/mL (≈ 5.45 µM); in data set [16], 12.5 µg/mL (≈ 10.9 µM); in the data set on Escherichia coli NIHJ, 100 µg/mL (≈ 87.2 µM); in data set [17], 3.13 µg/mL (≈ 2.73 µM); in data set [18], 3.13 µg/mL (≈ 2.73 µM). Further, the MIC in the data set with Micrococcus luteus FDA16 was found to be 3.13 µg/mL (≈ 2.73 µM); in data set [19] it was 1.56 µg/mL (≈ 1.36 µM); in data set [20] it was 3.13 µg/mL (≈ 2.73 µM); in data set [21], 3.13 µg/mL (≈ 2.73 µM); in [22], 6.25 µg/mL (≈ 5.45 µM); in data set [24], 3.13 µg/mL (≈ 2.73 µM). The MIC with Bacillus anthracis came to 0.78 µg/mL (≈ 0.68 µM); in data set [25], 6.25 µg/mL (≈ 5.45 µM). Also, the entries for the “Minimum Inhibitory Concentration of Compound tested against Test Bacteria” value in data set [10], in data set [11] and in [12] were below 0.025, 1.56 and 0.78, respectively. In addition, the Toxicity result in [23] is recorded as “did not exhibit any toxicity”.

Source of the values: patent publication US6780616B1, “Antibiotic caprazamycins and process for producing the same” (Zaidan Hojin Biseibutsu Kagaku Kenkyu Kai Corp., priority 1999, dated 2004).
